We go through 96 compounds from ChEMBL document CHEMBL3507680, “University of Dundee, Gates Library screen for HepG2 cell viability”.

A short description of the data set: Human HepG2 cell viability assay in 384 well format. Further details: dose 125 nL, time 70.5 hour; cytotoxicity at 70.5 h: concentration not given beside the values. As to conditions: HepG2 cells, read-out: Inhibition. It counts as toxicity, cell-based.
Regarding `COc1ccc(-c2n[nH]cc2CN2CCSCC2)c(OC)c1`, the cytotoxicity at 70.5 h is -7.44%.
In the case of `CC(=O)c1cc(CC(=O)N2CCCC2c2nc(C(C)C)no2)cs1` (stereo unspecified), the cytotoxicity at 70.5 h is -3.24%.
On to `CCN1CCC(CC(=O)NCc2cc(C)nn2C)CC1`, for which the cytotoxicity at 70.5 h was -4.69%.
`Cc1cccc(N2CCN(CCC(=O)NCc3cccnc3)CC2)c1`: the cytotoxicity at 70.5 h is -0.687%.
Turning to `CC(C)NC(=O)N1CCCC(c2nnc(CN3CCOCC3)n2C)C1` (stereo unspecified), the cytotoxicity at 70.5 h is -10.9%.
For the compound `Cn1ccc2c(-c3cc(N4CCCCC4)ncn3)ccnc21`, the cytotoxicity at 70.5 h worked out at 24.9%.
The value for `O=C1NCC2(CCCN(C(=O)c3csc(-c4cccs4)n3)C2)O1` (stereo unspecified) was -14.3%.
Turning to `CC(C)CC(C)NCc1cccnc1N1CCN(c2ccccn2)CC1` (stereo unspecified), the cytotoxicity at 70.5 h was -12.3%.
With `CCc1nnc(CN(CC)C(=O)C2CC(=O)N(C3CC3)C2)o1` (stereo unspecified), the cytotoxicity at 70.5 h is -3.34%.
For `O=C1CCC2(CCOC2)CN1Cc1nc2ccc(Cl)cc2[nH]1` (stereo unspecified) the value was -1.72%.
As to `CN1C[C@@H]2CC[C@H](CC1=O)N2C(=O)c1ccc(-c2ccccc2)[nH]c1=O`, the cytotoxicity at 70.5 h was -8.24%.
For `CCC1CN(C(=O)c2ccc(O)c(C)c2)CCN1C(C)C` (stereo unspecified), the cytotoxicity at 70.5 h is -5.22%.
Turning to `CCc1cc(CN2CCCCC2c2ccc(F)cc2)on1` (stereo unspecified), the cytotoxicity at 70.5 h was -5.55%.
Regarding `O=C1CCCN1CCCNCc1cc(O)c2cccc(F)c2n1`, the cytotoxicity at 70.5 h was -3.49%.
As for `CC(=O)N1CCc2c(nc(N(C)C)nc2N(C)CC2CCCO2)C1` (stereo unspecified), the cytotoxicity at 70.5 h is -6.61%.
For the compound `Cc1cccc(C(C(=O)NCCc2nc(C)cc(=O)[nH]2)N(C)C)c1` (stereo unspecified), the cytotoxicity at 70.5 h was determined as 25.6%.
For `Cc1ccnc(N2CCCC(c3nccn3C(C)C)C2)n1` (stereo unspecified), the cytotoxicity at 70.5 h is 1.49%.
As to `Cc1c(C(=O)N2C[C@@H](CN(C)CCO)[C@@H](CO)C2)sc2ccccc12`, the cytotoxicity at 70.5 h is -9.44%.
For `CC(C)c1nccn1C(C)C(=O)NC1Cc2ccccc2C1` (stereo unspecified), the cytotoxicity at 70.5 h was -1.16%.
On to `N#Cc1ccc(C(=O)N2CCCC3(C=Cc4ccccc4O3)CC2)cn1` (stereo unspecified), for which the cytotoxicity at 70.5 h is 7.89%.
For `Cn1ccnc1CN1CCN(Cc2ccccc2)[C@@H]2CS(=O)(=O)C[C@@H]21` the value was -9.92%; for `O=C1NCCN2CCN(Cc3ccc(Cl)c(Cl)c3)CC12` (stereo unspecified), -8.1%; for `CCCC(C(=O)NC1CCN(S(C)(=O)=O)CC1)n1cccc1` (stereo unspecified), -3.64%.
For `Cc1ccccc1N1CCN(C(=O)c2cscn2)C(C)C1` (stereo unspecified) the value was -1.54%; for `Cc1nc(N)sc1C(=O)N[C@H]1CN(CCO)C[C@@H]1C1CC1`, -2.54%; for `O=S1(=O)CCC(n2cc(C3=CCN(CCN4CCCCC4)CC3)cn2)C1` (stereo unspecified), -7.91%.
For `CC(C)=CCN1C[C@H]2CC[C@@H]1CN(C(=O)c1ccc(S(N)(=O)=O)cc1)C2`, the cytotoxicity at 70.5 h was 1.36%.
For the compound `COCCN1CCN(Cc2nc3c(s2)CCCC3)[C@H]2CS(=O)(=O)C[C@H]21`, the cytotoxicity at 70.5 h was -8.18%.
Regarding `O=C(Nc1ccc(-c2ccn[nH]2)cc1)C1CCCN(Cc2ccoc2)C1` (stereo unspecified), the cytotoxicity at 70.5 h came to 1.09%.
On to `CCN(CCO)C(=O)C1CCC(=O)N(Cc2cccc(OC)c2)C1` (stereo unspecified), for which the cytotoxicity at 70.5 h is -13.2%.
As for `Cn1cc(CN2CCOC(CCNC(=O)c3ccsc3)C2)cn1` (stereo unspecified), the cytotoxicity at 70.5 h was -0.896%.
Take `CC(=O)NCCNC(=O)C1(Oc2cccnc2C)CCNCC1`: the cytotoxicity at 70.5 h was -5.79%.
Take `Nc1nccc(N2CCNC(C(=O)NCc3ccccn3)C2)n1` (stereo unspecified): the cytotoxicity at 70.5 h is 10.1%.
As for `O=c1c2cccnc2ccn1Cc1nccn1C1CC1`, the cytotoxicity at 70.5 h is -10.2%.
For `Cc1noc(C)c1CC(=O)N1CCCC(Cn2ccnc2C)C1` (stereo unspecified) the value was -16.8%.
For the compound `Oc1cc(CN2CCC(O)(Cn3ccnc3)CC2)nc2c(Cl)cccc12`, the cytotoxicity at 70.5 h was -9.08%.
With `Cc1nn(C)c2nc(N3CCCCC3c3ccc(F)cc3)sc12` (stereo unspecified), the cytotoxicity at 70.5 h came to 0.992%.
For the compound `CCc1cnc(NCC(c2cccnc2)N2CCOCC2)nc1` (stereo unspecified), the cytotoxicity at 70.5 h is -1.2%.
On to `COCC(=O)N(Cc1cccnc1)CC1CCN(C2CCCC2)CC1`, for which the cytotoxicity at 70.5 h amounted to 1.31%.
The value for `Cc1cc(C)n2nc(C(=O)N3CCCC4(CNC(=O)O4)C3)cc2n1` (stereo unspecified) was 13.7%; that for `Cc1ccc(CN2CCC3(C2)C(=O)N(CC(N)=O)c2ccccc23)s1` (stereo unspecified) was -3.49%.
Consider `O=C(O)c1cccc(N2CCC(Oc3cccc(F)c3)CC2)n1`, for which the cytotoxicity at 70.5 h was -7%.
Consider `Cc1nn2c(N3CCCC(C(N)=O)C3)cc(-c3ccccc3)nc2c1C` (stereo unspecified), for which the cytotoxicity at 70.5 h was -3.49%.
For `CCCn1cnnc1CNC(=O)C1COc2ccc(OC)cc2C1` (stereo unspecified) the value was 20.1%; for `CCOc1ccnc(NCc2nc(C)cc(C(F)(F)F)n2)n1`, -0.888%; for `COc1cccc([C@@H]2CCN(Cc3cccc(C)n3)C[C@H]2O)c1`, -9.27%.
Consider `CC(=O)NCCNCc1cn(CCN2CCSCC2)nc1C`, for which the cytotoxicity at 70.5 h was -5.7%.
As for `CCN(C)S(=O)(=O)NCC1CCN(Cc2ccccc2C)CC1`, the cytotoxicity at 70.5 h is -9.65%.
For `COCC(C)N1CCc2onc(-c3ccc(C(F)(F)F)cc3)c2C1` (stereo unspecified), the cytotoxicity at 70.5 h is -7.25%.
Regarding `CCn1cncc1C1CC(=O)Nc2c1c(C)nn2-c1ccc(C)cc1` (stereo unspecified), the cytotoxicity at 70.5 h was found to be 1.51%.
For `Cc1c(C(C)NCC2CCCC2)cnn1-c1ccc(F)cc1F` (stereo unspecified), the cytotoxicity at 70.5 h is -11.6%.
Consider `CN(C)c1nc2c(c(=O)[nH]1)Cc1ccccc1OC2`, for which the cytotoxicity at 70.5 h came to 31.5%.
For the compound `Cc1nc(N(C)CCCc2nccn2C)c2nc(C)oc2n1`, the cytotoxicity at 70.5 h was -11.8%.
Turning to `CCNC(=O)[C@@H]1C[C@H](n2cc(CC3CCCCC3)nn2)CN1`, the cytotoxicity at 70.5 h is -7.89%.
With `CN(Cc1nc(C2CC2)no1)C(=O)CN1CC(c2ccccc2)CC1=O` (stereo unspecified), the cytotoxicity at 70.5 h is -2.96%.
Turning to `CCn1nc(CNC(=O)C2CCCN(CC(N)=O)C2)c2ccccc21` (stereo unspecified), the cytotoxicity at 70.5 h is -14.9%.
As to `CCN(CC)c1ncccc1CNCc1ccc(Cl)s1`, the cytotoxicity at 70.5 h was -7.77%.
With `Cc1ccc(NC2CCCN(Cc3ccc(Cl)cc3)C2)nn1` (stereo unspecified), the cytotoxicity at 70.5 h was determined as 25.4%.
For `COc1cc(Oc2ccc(C(F)(F)F)cn2)ccc1CN1CCCC1` the value was -10.7%; for `COc1cccc(OCC2CCCN(C(=O)CCCn3cccn3)C2)c1` (stereo unspecified), -11%; for `CCCc1nc(CN(CC)Cc2ccoc2)no1`, -7.87%.
For `COc1ccc(-c2ccc(C(=O)N3CCOCC3CC(N)=O)o2)cc1` (stereo unspecified) the value was -2.54%.
The value for `CCOc1ccc2[nH]c(=O)c(CN(C)CCc3cn[nH]c3)cc2c1` was 4.91%.
With `Cc1n[nH]c(C)c1CNc1nc(-c2ccco2)nc2c1CCNCC2`, the cytotoxicity at 70.5 h was 5.99%.
Take `O=C(CCN1CCOCC1)NC1CCCN(CC2CCCCC2)C1` (stereo unspecified): the cytotoxicity at 70.5 h is -3.9%.
For `N[C@H]1CC[C@@H](NC(=O)c2ccc3nc(-c4ccc(F)cc4)cn3c2)CC1`, the cytotoxicity at 70.5 h was -14.6%.
The value for `CN(C)C(=O)N1C[C@@H]2CC[C@H](C1)N(Cc1nnc(-c3ccccc3)o1)C2` was -16.7%; that for `CCc1c(C)sc2ncnc(N3C[C@H](O)[C@@H](N4CCCC4)C3)c12` was -2.63%.
For `Nc1nc(CCC(=O)N2C[C@@H](CN3CCCC3)C[C@H](CO)C2)n[nH]1` the value was -6.67%; for `CC[C@H]1COCCN1C(=O)c1cnc(C(C)C)nc1C`, 16.6%.
In the case of `Cc1cc(C)nc(N2CCCC(Cn3cc(CN(C)C)nn3)C2)n1` (stereo unspecified), the cytotoxicity at 70.5 h is -6.18%.
For `CCOc1ccc(CNCc2cccnc2N(C)C)cc1` the value was -5.74%; for `O=C(CCN1CCCO1)N1CC[C@@H](CNC(=O)N2CCCC2)[C@H](O)C1`, 14%; for `CC(C)c1nc(CN2CCc3onc(-c4cccc(F)c4)c3C2)no1`, -8.91%.
Regarding `Cc1nc(C2CCCNC2)cc(N(Cc2c(C)nn(C)c2C)C2CC2)n1` (stereo unspecified), the cytotoxicity at 70.5 h is -0.0304%.
For the compound `CC(C)N1CCC(CC(=O)NC(C(=O)O)c2cccc(F)c2)CC1` (stereo unspecified), the cytotoxicity at 70.5 h is -5.14%.
Consider `COc1ccc(-n2c(SCC(=O)O)nnc2-c2cn[nH]c2)cc1`, for which the cytotoxicity at 70.5 h is 15.3%.
For the compound `O=C(CC1COCCN1)NCCc1nc(Cc2ccccc2)no1` (stereo unspecified), the cytotoxicity at 70.5 h was -15.5%.
For the compound `CC(NC(=O)Nc1ccccc1CN1CCOCC1)c1nnc(N)s1` (stereo unspecified), the cytotoxicity at 70.5 h is -11.9%.
As for `CCCn1cc(C(=O)NC(CC(=O)O)c2ccco2)c(C)n1` (stereo unspecified), the cytotoxicity at 70.5 h is -8.82%.
Consider `CN(Cc1cnc(N)nc1)C(=O)C1CC(=O)N(Cc2ccncc2)C1` (stereo unspecified), for which the cytotoxicity at 70.5 h was -10.8%.
For `Cc1csc2c(=O)n(CCN3CCC(c4ccccc4)CC3)cnc12` the value was -3.26%; for `CCc1nc(C)sc1CN1CCc2[nH]nc(-c3ccc(F)c(F)c3)c2C1`, -5.32%.
As for `COCc1ncc(CN2CC[C@@](C)(O)[C@@H](Cc3ccccc3)C2)cn1`, the cytotoxicity at 70.5 h was -1.9%.
Take `COc1ccc(N2CCN(C(=O)CCn3nccc3C)CC2(C)C)cc1`: the cytotoxicity at 70.5 h was 1.97%.
With `Cc1cc2cccc(NC(=O)N3CCC(N(C)C)C3)c2o1` (stereo unspecified), the cytotoxicity at 70.5 h was -8.17%.
Regarding `Cc1cc(NC2CCN(c3ccc(F)cc3)CC2)n2nc(C)cc2n1`, the cytotoxicity at 70.5 h is -1.64%.
`Cc1nc(-c2cccc(C(=O)O)c2)c[nH]1`: the cytotoxicity at 70.5 h came to 15.3%.
Turning to `O=C(O)C1CCN(C[C@H]2CC[C@@H](Cc3ccc4c(c3)OCO4)O2)CC1`, the cytotoxicity at 70.5 h came out at 8.69%.
On to `COc1nccc(N2CC[C@@H](N3CCC(O)CC3)[C@H](O)C2)c1C#N`, for which the cytotoxicity at 70.5 h turned out to be 5.37%.
Regarding `CCOCC(=O)N1C[C@@H]2CC[C@H](C1)N(Cc1ccccn1)C2=O`, the cytotoxicity at 70.5 h was -9.63%.
For the compound `CN1CCN(C(=O)c2cn3ccsc3n2)[C@H]2CS(=O)(=O)C[C@H]21`, the cytotoxicity at 70.5 h was -11.3%.
As for `CCC(CO)N(Cc1ccc(F)cc1)Cc1c(C)nn(C)c1Cl` (stereo unspecified), the cytotoxicity at 70.5 h is -3.37%.
For the compound `COCc1noc(CC2CN(c3ncnc4sc(C)c(C)c34)CCO2)n1` (stereo unspecified), the cytotoxicity at 70.5 h is 1.73%.
Turning to `CC(C)[C@@H]1CN(Cc2cnc(C3CCCCC3)nc2)C[C@H]1N(C)C`, the cytotoxicity at 70.5 h came to 8.03%.
The value for `O=C(c1ccnc(N2CCOC(C(F)(F)F)C2)c1)N1CCCC1` (stereo unspecified) was 8.43%.
